Test results as given in ChEMBL document CHEMBL3351528, “Targeting dopamine D3 and serotonin 5-HT1A and 5-HT2A receptors for developing effective antipsychotics: synthesis, biological characterization, and behavioral studies” (J Med Chem, 2014).
Active and inactive are the calls of the source. The rule behind the calls is not given here.

Legend:
Mus musculus [1] = species: Mus musculus; experiment: animal or person; conditions: NMRI, sc
Description: Antipsychotic-like activity in sc dosed NMRI mouse assessed as reduction in methamphetamine-induced locomotor activity dosed 15 to 30 mins before administration of methamphetamine measured for 60 mins

Mus musculus [2] = experiment: Antipsychotic-like activity in NMRI mouse assessed as reduction in […]-induced locomotor activity at 1 mg/kg, sc dosed 15 to 30 mins before administration of methamphetamine measured for 60 mins; format: functional, organism-based; parameters: dose 1 mg/kg
Mus musculus [3] = species: Mus musculus; conditions: in vivo, sc, 0.5 h
Description: Effect on spontaneous exploratory locomotor activity in sc dosed NMRI mouse measured for 30 mins with activity counts each 5 mins

Mus musculus [4] = experiment: Toxicity in mouse assessed as induction of memory impairment by measuring […] to enter dark compartment at 10 mg/kg, po administered 30 mins before training by passive avoidance test; format: organism-based; parameters: dose 10 mg/kg, route oral; conditions: in vivo, 0.5 h
Mus musculus [5] = species: Mus musculus; experiment: animal or person; conditions: NMRI, sc; remark: listed apart in the source
Description: Antipsychotic-like activity in sc dosed NMRI mouse assessed as reduction in PCP-induced locomotor activity dosed 15 to 30 mins before administration of methamphetamine measured for 60 mins

[6] = target: 5-hydroxytryptamine receptor 2A (Homo sapiens, UniProt P28223)
Description: Binding affinity to 5HT2A receptor (unknown origin)

D(2) dopamine receptor = D(2) dopamine receptor (Homo sapiens, UniProt P14416)
Description: Binding affinity to dopamine D2 receptor (unknown origin)

[7] = target: T1, 5-hydroxytryptamine receptor 2C (Homo sapiens, UniProt P28335)
T1 sequence (P28335 whole entry): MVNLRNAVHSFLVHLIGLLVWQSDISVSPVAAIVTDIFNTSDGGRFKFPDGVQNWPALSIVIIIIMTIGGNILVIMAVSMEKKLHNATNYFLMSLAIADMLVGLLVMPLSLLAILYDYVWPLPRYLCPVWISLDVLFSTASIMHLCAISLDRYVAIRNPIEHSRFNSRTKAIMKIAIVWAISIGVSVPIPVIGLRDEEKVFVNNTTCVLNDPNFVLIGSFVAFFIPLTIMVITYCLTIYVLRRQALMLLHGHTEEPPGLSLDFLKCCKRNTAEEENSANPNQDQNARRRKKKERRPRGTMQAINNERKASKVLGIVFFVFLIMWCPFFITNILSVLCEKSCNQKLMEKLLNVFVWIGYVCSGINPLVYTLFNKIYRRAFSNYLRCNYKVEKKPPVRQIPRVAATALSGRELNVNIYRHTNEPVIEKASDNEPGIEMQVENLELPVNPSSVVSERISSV
Description: Binding affinity to 5HT2C receptor (unknown origin)

Mus musculus [8] = experiment: Antipsychotic-like activity in sc dosed NMRI mouse assessed as reduction in MK801-induced locomotor activity dosed 15 to 30 mins before administration of MK801 measured for 60 mins; format: functional; conditions: read-out: MED
Mus musculus [9] = experiment: Toxicity in NMRI mouse assessed as induction of catalepsy at 30 mg/kg, sc dosed 30 mins before test; format: organism-based; parameters: dose 30 mg/kg, route subcutaneous; conditions: in vivo, 0.5 h
[10] = target: T2, 5-hydroxytryptamine receptor 1A (Homo sapiens, UniProt P08908)
T2 sequence (P08908 whole entry): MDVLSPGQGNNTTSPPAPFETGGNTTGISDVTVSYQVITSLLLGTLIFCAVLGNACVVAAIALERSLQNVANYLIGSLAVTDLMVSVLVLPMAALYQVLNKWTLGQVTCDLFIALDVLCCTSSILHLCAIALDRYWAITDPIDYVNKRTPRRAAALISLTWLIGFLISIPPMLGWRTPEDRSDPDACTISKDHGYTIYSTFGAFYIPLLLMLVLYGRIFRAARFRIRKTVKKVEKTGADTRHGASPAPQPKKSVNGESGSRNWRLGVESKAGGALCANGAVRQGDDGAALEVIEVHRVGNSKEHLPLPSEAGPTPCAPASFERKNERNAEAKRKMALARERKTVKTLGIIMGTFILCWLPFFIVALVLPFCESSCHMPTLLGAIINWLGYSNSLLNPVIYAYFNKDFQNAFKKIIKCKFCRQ
Description: Binding affinity to 5HT1A receptor (unknown origin)

D(3) dopamine receptor = D(3) dopamine receptor (Homo sapiens, UniProt P35462)
Description: Binding affinity to dopamine D3 receptor (unknown origin)

Heart [11] = experiment: Cardiotoxicity in Langendorff-perfused Sprague-Dawley rat heart assessed as time duration of ventricular depolarization and repolarization at 0.01 uM (reference value: 71.61 +/- 4.21 ms); format: toxicity, tissue-based
Heart [12] = experiment: Cardiotoxicity in Langendorff-perfused Sprague-Dawley rat heart assessed as intraventricular conduction time at 1 uM (reference value: 12.33 +/- 0.29 ms); format: toxicity, tissue-based, Cardiac ventricle
Heart [13] = experiment: Cardiotoxicity in Langendorff-perfused Sprague-Dawley rat heart assessed as corrected time duration of ventricular depolarization and repolarization at 10 uM (reference value: 159.41 +/- 11.21 ms); format: toxicity, tissue-based
Heart [14] = experiment: Cardiotoxicity in Langendorff-perfused Sprague-Dawley rat heart assessed as cycle length time at 10 uM (reference value: 203.61 +/- 9.17 ms); format: toxicity, tissue-based
Heart [15] = experiment: Cardiotoxicity in Langendorff-perfused Sprague-Dawley rat heart assessed as time duration of ventricular depolarization and repolarization at 0.1 uM (reference value: 71.61 +/- 4.21 ms); format: toxicity, tissue-based
Heart [16] = experiment: Cardiotoxicity in Langendorff-perfused Sprague-Dawley rat heart assessed as cycle length time at 1 uM (reference value: 203.61 +/- 9.17 ms); format: toxicity, tissue-based
Heart [17] = experiment: Cardiotoxicity in Langendorff-perfused Sprague-Dawley rat heart assessed as heart rate at 0.01 uM (reference value: 296.25 +/- 13.61 bpm); format: toxicity, tissue-based
Heart [18] = experiment: Cardiotoxicity in Langendorff-perfused Sprague-Dawley rat heart assessed as corrected time duration of ventricular depolarization and repolarization at 1 uM (reference value: 159.41 +/- 11.21 ms); format: toxicity, tissue-based
Heart [19] = experiment: Cardiotoxicity in Langendorff-perfused Sprague-Dawley rat heart assessed as time duration of ventricular depolarization and repolarization at 10 uM (reference value: 71.61 +/- 4.21 ms); format: toxicity, tissue-based
Heart [20] = experiment: Cardiotoxicity in Langendorff-perfused Sprague-Dawley rat heart assessed as cycle length time at 0.1 uM (reference value: 203.61 +/- 9.17 ms); format: toxicity, tissue-based
Heart [21] = experiment: Cardiotoxicity in Langendorff-perfused Sprague-Dawley rat heart assessed as atrioventricular conduction time at 10 uM (reference value: 41.98 +/- 2.55 ms); format: toxicity, tissue-based
Heart [22] = experiment: Cardiotoxicity in Langendorff-perfused Sprague-Dawley rat heart assessed as time duration of ventricular depolarization and repolarization at 1 uM (reference value: 71.61 +/- 4.21 ms); format: toxicity, tissue-based
Heart [23] = experiment: Cardiotoxicity in Langendorff-perfused Sprague-Dawley rat heart assessed as intraventricular conduction time at 0.1 uM (reference value: 12.33 +/- 0.29 ms); format: toxicity, tissue-based, Cardiac ventricle
Heart [24] = experiment: Cardiotoxicity in Langendorff-perfused Sprague-Dawley rat heart assessed as heart rate at 1 uM (reference value: 296.25 +/- 13.61 bpm); format: toxicity, tissue-based
Heart [25] = experiment: Cardiotoxicity in Langendorff-perfused Sprague-Dawley rat heart assessed as corrected time duration of ventricular depolarization and repolarization at 0.01 uM (reference value: 159.41 +/- 11.21 ms); format: toxicity, tissue-based
Heart [26] = experiment: Cardiotoxicity in Langendorff-perfused Sprague-Dawley rat heart assessed as atrioventricular conduction time at 0.1 uM (reference value: 41.98 +/- 2.55 ms); format: toxicity, tissue-based
Heart [27] = experiment: Cardiotoxicity in Langendorff-perfused Sprague-Dawley rat heart assessed as cycle length time at 0.01 uM (reference value: 203.61 +/- 9.17 ms); format: toxicity, tissue-based
Heart [28] = experiment: Cardiotoxicity in Langendorff-perfused Sprague-Dawley rat heart assessed as intraventricular conduction time at 0.01 uM (reference value: 12.33 +/- 0.29 ms); format: toxicity, tissue-based, Cardiac ventricle
Heart [29] = experiment: Cardiotoxicity in Langendorff-perfused Sprague-Dawley rat heart assessed as atrioventricular conduction time at 0.01 uM (reference value: 41.98 +/- 2.55 ms); format: toxicity, tissue-based
Heart [30] = experiment: Cardiotoxicity in Langendorff-perfused Sprague-Dawley rat heart assessed as heart rate at 0.1 uM (reference value: 296.25 +/- 13.61 bpm); format: toxicity, tissue-based
Heart [31] = experiment: Cardiotoxicity in Langendorff-perfused Sprague-Dawley rat heart assessed as atrioventricular conduction time at 1 uM (reference value: 41.98 +/- 2.55 ms); format: toxicity, tissue-based
Heart [32] = experiment: Cardiotoxicity in Langendorff-perfused Sprague-Dawley rat heart assessed as intraventricular conduction time at 10 uM (reference value: 12.33 +/- 0.29 ms); format: toxicity, tissue-based, Cardiac ventricle
Heart [33] = experiment: Cardiotoxicity in Langendorff-perfused Sprague-Dawley rat heart assessed as heart rate at 10 uM (reference value: 296.25 +/- 13.61 bpm); format: toxicity, tissue-based
Heart [34] = experiment: Cardiotoxicity in Langendorff-perfused Sprague-Dawley rat heart assessed as corrected time duration of ventricular depolarization and repolarization at 0.1 uM (reference value: 159.41 +/- 11.21 ms); format: toxicity, tissue-based

D(3) dopamine receptor, sequence (P35462 whole entry, the tested form may be a part): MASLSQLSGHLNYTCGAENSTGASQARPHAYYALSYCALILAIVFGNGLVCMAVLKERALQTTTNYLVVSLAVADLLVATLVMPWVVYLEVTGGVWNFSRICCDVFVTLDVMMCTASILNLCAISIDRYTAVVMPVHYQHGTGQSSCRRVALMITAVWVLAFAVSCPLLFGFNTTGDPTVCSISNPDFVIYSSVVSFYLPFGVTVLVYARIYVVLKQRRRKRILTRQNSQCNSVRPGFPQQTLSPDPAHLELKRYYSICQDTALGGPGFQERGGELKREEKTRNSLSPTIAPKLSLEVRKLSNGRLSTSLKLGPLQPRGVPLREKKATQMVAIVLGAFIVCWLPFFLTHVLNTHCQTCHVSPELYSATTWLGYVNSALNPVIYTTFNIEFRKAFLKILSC
D(2) dopamine receptor, sequence (P14416 whole entry): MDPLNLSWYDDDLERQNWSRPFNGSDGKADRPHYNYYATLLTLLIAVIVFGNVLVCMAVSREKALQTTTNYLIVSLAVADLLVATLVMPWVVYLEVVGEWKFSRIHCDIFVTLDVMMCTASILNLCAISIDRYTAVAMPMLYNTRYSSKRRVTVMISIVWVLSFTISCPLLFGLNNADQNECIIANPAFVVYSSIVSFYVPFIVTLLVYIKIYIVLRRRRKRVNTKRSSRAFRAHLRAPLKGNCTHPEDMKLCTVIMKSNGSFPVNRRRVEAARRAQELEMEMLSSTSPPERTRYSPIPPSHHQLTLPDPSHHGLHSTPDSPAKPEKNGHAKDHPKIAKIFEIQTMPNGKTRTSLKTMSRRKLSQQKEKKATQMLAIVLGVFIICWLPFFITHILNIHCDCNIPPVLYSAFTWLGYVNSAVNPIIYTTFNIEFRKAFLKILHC
5-hydroxytryptamine receptor 2A, sequence (P28223 whole entry): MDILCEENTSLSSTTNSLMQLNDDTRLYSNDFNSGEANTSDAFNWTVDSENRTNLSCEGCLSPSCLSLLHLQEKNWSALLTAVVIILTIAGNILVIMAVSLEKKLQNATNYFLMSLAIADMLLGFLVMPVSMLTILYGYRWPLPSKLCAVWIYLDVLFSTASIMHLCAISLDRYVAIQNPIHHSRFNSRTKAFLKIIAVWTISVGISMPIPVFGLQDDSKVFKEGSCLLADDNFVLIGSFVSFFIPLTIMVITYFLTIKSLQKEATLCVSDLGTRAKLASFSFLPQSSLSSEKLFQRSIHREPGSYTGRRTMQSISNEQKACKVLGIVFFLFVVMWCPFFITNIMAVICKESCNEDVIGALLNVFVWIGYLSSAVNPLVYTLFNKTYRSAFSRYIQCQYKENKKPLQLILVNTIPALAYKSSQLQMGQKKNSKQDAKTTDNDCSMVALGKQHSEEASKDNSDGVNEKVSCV

CN1CCN(C2=Nc3cc(Cl)ccc3Nc3ccccc32)CC1 [CLOZAPINE]
ED50 (Mus musculus [1]): 1.1 mg/kg | Activity (Mus musculus [2]): Active | ED50 (Mus musculus [3]): 2.4 mg/kg | Activity (Mus musculus [4]): Toxic | ED50 (Mus musculus [5]): 2.5 mg/kg

Cc1cccc(N2CCN(CCCCNC(=O)c3cc4ccccc4cn3)CC2)c1
minimal effective dose (Mus musculus [1]; read-out: MED): ≤ 3 mg/kg | Ki [6]: 0.015 µM | MED (Mus musculus [3]): <= 3 mg kg-1 | Ki (D(2) dopamine receptor): 0.286 µM | Ki [7]: 0.169 µM | minimal effective dose (Mus musculus [8]): 3 mg/kg | Activity (Mus musculus [9]): Non-toxic | Ki [10]: 0.008 µM | Ki (D(3) dopamine receptor): 0.005 µM

Cl.O=C(NCCCCN1CCN(c2ccccc2)CC1)c1ccc2ncccc2c1
Time (Heart [11]): 70.61 ms | Time (Heart [12]): 13.38 ms | Time (Heart [13]): 159.76 ms | Time (Heart [14]): 218.07 ms | Time (Heart [15]): 71.4 ms | Time (Heart [16]): 204.53 ms | Activity (Heart [17]): 302.2 bpm | Time (Heart [18]): 158.14 ms | Time (Heart [19]): 73.96 ms | Time (Heart [20]): 194.96 ms | Time (Heart [21]): 44.51 ms | Time (Heart [22]): 71.03 ms | Time (Heart [23]): 12.7 ms | Activity (Heart [24]): 297.7 bpm | Time (Heart [25]): 158.61 ms | Time (Heart [26]): 42.32 ms | Time (Heart [27]): 199.43 ms | Time (Heart [28]): 13.17 ms | Time (Heart [29]): 41.95 ms | Activity (Heart [30]): 308.58 bpm | Time (Heart [31]): 41.51 ms | Time (Heart [32]): 14.24 ms | Activity (Heart [33]): 280.67 bpm | Time (Heart [34]): 162.06 ms
